Assay results taken from patent US7893098B2, “Pyrrole and pyrazole DAAO inhibitors” (Sepracor Inc., priority 2003, dated 2011).

molecular target: Purified pig DAAO (Sus scrofa, UniProt P00371); experiment: In vitro measurement of DAAO activity (Amplex Red H2O2 / phenylglycine assay); assay type: biochemical; conditions: read-out: Inhibition of DAAO, IC50
Experimental: Purified pig DAAO, added to a buffered mixture of 50 mM D-Serine produces H202 in stoichiometric amounts for each D-Serine molecule oxidized. H202 production can be monitored with a commercially available dye Amplex Red, which in the presence of H202, is converted to the fluorescent product resorufin. For each described inhibitor, the fluorescence was also measured during additions of 80 μM H202 in the absence of DAAO, to control for artifactual inhibition of the dye conversion, and to quantify the amount of H202 produced. In an alternative assay of DAAO activity, the purified pig DAAO is added to buffered mixture of 1 mM phenylglycine in the presence of compounds. The activity of DAAO is monitored spectrophotometrically by its enzymatic conversion of phenylglycine to benzoylformic acid with optical absorption at 252 nm.
Inhibitors of DAAO's enzymatic cycle were serially diluted to reduce the level of inhibition. The parameters of a non-linear equation were adjusted to fit the resulting series of inhibition levels to extrapolate the concentration of compound where 50% inhibition is achieved (IC50). These numbers are averaged for the number (n) of independent measurements (on separate days) of the inhibition.

Sequence of Purified pig DAAO (P00371 whole entry): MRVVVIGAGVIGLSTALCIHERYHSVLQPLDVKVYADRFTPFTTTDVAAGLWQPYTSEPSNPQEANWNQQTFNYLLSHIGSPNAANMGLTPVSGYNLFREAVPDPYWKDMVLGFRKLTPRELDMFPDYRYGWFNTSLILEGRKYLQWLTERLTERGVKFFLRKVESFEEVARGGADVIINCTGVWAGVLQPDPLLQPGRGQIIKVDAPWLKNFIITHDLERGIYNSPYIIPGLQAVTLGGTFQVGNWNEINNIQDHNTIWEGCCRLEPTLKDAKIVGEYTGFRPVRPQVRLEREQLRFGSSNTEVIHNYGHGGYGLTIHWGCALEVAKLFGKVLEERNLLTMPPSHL

IC50 | Structure (SMILES)
> 100 µM | Cc1cc(C)c(C(=O)O)[nH]1
< 100 µM | O=C(O)c1cc(CCc2ccccc2)on1
< 100 µM | O=C(O)c1cc(CCCc2ccccc2)c[nH]1 [Compound 45, 4-(3-phenylpropyl)-1H-pyrrole-2-carboxylic acid]
< 1 µM | CC(C)CCCc1cc(C(=O)O)n[nH]1 [Compound 18, 5-(4-methylpentyl)-1H-pyrazole-3-carboxylic acid]
< 1 µM | O=C(O)c1cc(CCc2ccccc2Br)c[nH]1 [Compound 65, 4-[2-(2-bromophenyl)-ethyl]-1H-pyrrole-2-carboxylic acid]
< 1 µM | CC(Cc1ccccc1)c1cc(C(=O)O)n[nH]1 (centres unmarked) [Compound 62, 5-(1-methyl-2-phenylethyl)-1H-pyrazole-3-carboxylic acid]
< 10 µM | O=C(O)c1cc(CCCC2CCCC2)c[nH]1 [Compound 76, 4-(3-Cyclopentylpropyl)-1H-pyrrole-2-carboxylic acid]
< 10 µM | O=C(O)c1n[nH]c2c1CCCC2Cc1ccccc1 (centres unmarked)
< 1 µM | O=C(O)c1cc(CCc2ccc(Cl)cc2)n[nH]1 [Compound 69, 5-[2-(4-Chlorophenyl)-ethyl]-1H-pyrazole-3-carboxylic acid]
< 10 µM | O=C(O)c1n[nH]c2c1COCC2
< 100 µM | O=C(Cc1ccccc1)c1c[nH]c(C(=O)O)c1
< 100 µM | CC1CCc2c(C(=O)O)n[nH]c2C1 (centres unmarked)
< 1 µM | CC(Cc1cc(C(=O)O)n[nH]1)c1ccccc1 (centres unmarked) [Compound 58, 5-(2-phenylpropyl)-1H-pyrazole-3-carboxylic acid]
< 10 µM | O=C(O)c1n[nH]c2c1CCCCCC2
< 10 µM | CC1(C)CCc2c(C(=O)O)n[nH]c21 [Compound 3, 6,6-Dimethyl-1,4,5,6-tetrahydrocyclopentapyrazole-3-carboxylic acid]
< 10 µM | CC1CCc2[nH]nc(C(=O)O)c2C1 (centres unmarked)
< 100 µM | O=C(O)c1n[nH]c2c1CC(OCc1ccccc1)CC2 (centres unmarked)
< 100 µM | CC(=O)c1c[nH]c(C(=O)O)c1
> 100 µM | O=C(O)c1ccc(Cc2ccccc2)[nH]1 [Compound 32, 5-benzyl-1H-pyrrole-2-carboxylic acid]
< 100 µM | Cc1cc(C(=O)O)no1
< 100 µM | O=C(O)c1ccc(CCc2ccccc2)[nH]1 [Compound 36, 5-phenethyl-1H-pyrrole-2-carboxylic acid]
< 10 µM | CC(C)CCc1cc(C(=O)O)n[nH]1 [Compound 48, 5-(3-methylbutyl)-1H-pyrazole-3-carboxylic acid]
< 100 µM | O=C(O)c1n[nH]c2c1CCCC2CCc1ccccc1 (centres unmarked)
< 1 µM | CC(C)c1cc(C(=O)O)n[nH]1
< 1 µM | O=C(O)c1cc(CCc2ccccc2)[nH]n1 [Compound 21, 5-phenethyl-1H-pyrazole-3-carboxylic acid]

IC50 | Structure (SMILES)
< 100 µM | O=C(O)c1cc[nH]n1
< 10 µM | C[C@@H](Cc1cc(C(=O)O)n[nH]1)c1ccccc1 [Compound 80, (S)-5-(2-phenylpropyl)-1H-pyrazole-3-carboxylic acid]
< 10 µM | Cc1cc(C(=O)O)n[nH]1
< 1 µM | O=C(O)c1n[nH]c2c1CCCC2
< 1 µM | O=C(O)c1cc(CCc2ccccc2)c[nH]1
< 100 µM | O=C(O)c1n[nH]c2c1CCCC2C1CCCCC1 (centres unmarked)
< 10 µM | O=C(O)c1n[nH]c2c1CCCCC2 [Compound 15, 1,4,5,6,7,8-Hexahydrocycloheptapyrazole-3-carboxylic acid]
> 100 µM | O=C(O)c1n[nH]c2c1CCc1ccccc1-2
< 1 µM | O=C(O)c1cc(CCc2ccc(F)cc2)c[nH]1 [Compound 73, 4-[2-(4-fluorophenyl)-ethyl]-1H-pyrrole-2-carboxylic acid]
< 100 µM | CCCCCCCCCCC(=O)c1c[nH]c(C(=O)O)c1
< 10 µM | O=C(O)c1cc2c([nH]1)CCCC2
< 10 µM | CC1CCc2c(C(=O)O)n[nH]c21 (centres unmarked) [Compound 6, 6-methyl-1,4,5,6-tetrahydrocyclopentapyrazole-3-carboxylic acid]
< 10 µM | CC1CCCc2c(C(=O)O)n[nH]c21 (centres unmarked)
< 1 µM | CC(C)=CCCc1cc(C(=O)O)n[nH]1 [Compound 51, 5-(4-Methylpent-3-enyl)-1H-pyrazole-3-carboxylic acid]
< 10 µM | O=C(O)c1ccc[nH]1
< 1 µM | COc1ccc(CCc2cc(C(=O)O)n[nH]2)cc1 [Compound 24, 5-[2-(4-Methoxyphenyl)-ethyl]-1H-pyrazole-3-carboxylic acid]
< 100 µM | CC1CCCC(C)(C)C1CCc1cc(C(=O)O)n[nH]1 (centres unmarked) [Compound 54, 5-[2-(2,2,6-trimethylcyclohexyl)-ethyl]-1H-pyrazole-3-carboxylic acid]
< 1 µM | O=C(O)c1cc(COc2ccccc2)[nH]n1 [Compound 42, 5-phenoxymethyl-1H-pyrazole-3-carboxylic acid]
< 100 µM | CC(C)C1CCc2[nH]nc(C(=O)O)c2C1 (centres unmarked)
< 1 µM | O=C(O)c1n[nH]c2c1CCC2 [drawing 44]
< 1 µM | O=C(O)c1n[nH]cc1[N+](=O)[O-]
< 1 µM | O=C(O)c1cc([N+](=O)[O-])[nH]n1
< 100 µM | O=C(Cc1ccc(Cl)cc1)c1c[nH]c(C(=O)O)c1
< 0.1 µM | O=C(O)c1cc(CCc2ccc(Cl)cc2)c(Br)[nH]1 [Compound 70, 5-bromo-4-[2-(4-chlorophenyl)-ethyl]-1H-pyrrole-2-carboxylic acid]

system: not listed separately; experiment: Rat brain uptake, carotid perfusion; assay type: in vivo; conditions: 30 second perfusion into left hemisphere, PBS pH 7.4; N of 4 rats
Description: Experiments that evaluate the rat brain penetration of test compounds use a perfusion system where the left carotid artery is cannulated and the branch arteries are tied off. The test compound plus internal controls are perfused for 30 seconds into the left hemisphere in phosphate buffered saline at pH 7.4. The internal controls are atenolol (with low brain uptake) and antipyrine (with high brain uptake). After a 30 second washout with perfusate, the brain is removed surgically. The left hemisphere is homogenized; test compounds (plus internal controls) are extracted from brain homogenate, and analyzed using LC/MS/MS to determine the concentration of test compound and internal controls in the brain.

Rat Brain Uptake Rate, pmol/g brain/sec | Structure (SMILES)
17 pmol/g brain/sec | CC(C)CCCc1cc(C(=O)O)n[nH]1 [Compound 18, 5-(4-methylpentyl)-1H-pyrazole-3-carboxylic acid]
6 pmol/g brain/sec | O=C(O)c1cc(CCc2ccccc2)[nH]n1 [Compound 21, 5-phenethyl-1H-pyrazole-3-carboxylic acid]
6 pmol/g brain/sec | O=C(O)c1n[nH]c2c1CCC2 [drawing 70]
204 pmol/g brain/sec | O=C(O)c1cc(CCc2ccc(Cl)cc2)c[nH]1 [Compound 39, 4-[2-(4-chlorophenyl)-ethyl]-1H-pyrrole-2-carboxylic acid]
